In patent US20260049076A1, “Tertiary Amine Substituted Bicyclic Compounds Useful as T Cell Activators” (BRISTOL-MYERS SQUIBB COMPANY, priority 2022, published 2026) one finds IC50 and EC50 data, which are given here for 4 compounds.

Test [1] has as its target T1, human DGKα (Homo sapiens, UniProt P23743).
T1 construct: TVMV protease cleavage site (C); Hexa-His (C); made in house; host or cells: Sf9 insect cells (baculovirus)
The test is described as follows: In vitro DGK inhibition assay, DGKα liposome (LIPGLO) assay. It counts as biochemical. Particulars: read-out: Enzyme Inhibition DGKalpha IC50. The procedure, abridged:
(§1)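 Baculovirus/Sf9-expressed His-tagged human DGKα or DGKζ (5 nM) on extruded liposomes (2 mM PS, 0.25 mM DAG, 2.75 mM PC) in MOPS pH 7.5 with MgCl2, CaCl2 and 150 μM ATP, 1 h.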

The target of test [2] is DGKalpha (Homo sapiens, UniProt P23743). The test is described as follows: Translocation DGKalpha. It counts as cell-based.
For test [3], the target named is T2, human DGKζ (Homo sapiens, UniProt Q13574).
T2 construct: TVMV protease cleavage site (C); Hexa-His (C); made in house; host or cells: Sf9 insect cells (baculovirus)
Put plainly: In vitro DGK inhibition assay, DGKζ liposome (LIPGLO) assay. It counts as biochemical. Particulars: read-out: Enzyme Inhibition DGKzeta IC50. In a few lines: as §1

In test [4] the target is DGKzeta (Homo sapiens, UniProt Q13574). The test is described as follows: Translocation DGKzeta. It counts as cell-based.
DGKzeta, sequence (Q13574 whole entry): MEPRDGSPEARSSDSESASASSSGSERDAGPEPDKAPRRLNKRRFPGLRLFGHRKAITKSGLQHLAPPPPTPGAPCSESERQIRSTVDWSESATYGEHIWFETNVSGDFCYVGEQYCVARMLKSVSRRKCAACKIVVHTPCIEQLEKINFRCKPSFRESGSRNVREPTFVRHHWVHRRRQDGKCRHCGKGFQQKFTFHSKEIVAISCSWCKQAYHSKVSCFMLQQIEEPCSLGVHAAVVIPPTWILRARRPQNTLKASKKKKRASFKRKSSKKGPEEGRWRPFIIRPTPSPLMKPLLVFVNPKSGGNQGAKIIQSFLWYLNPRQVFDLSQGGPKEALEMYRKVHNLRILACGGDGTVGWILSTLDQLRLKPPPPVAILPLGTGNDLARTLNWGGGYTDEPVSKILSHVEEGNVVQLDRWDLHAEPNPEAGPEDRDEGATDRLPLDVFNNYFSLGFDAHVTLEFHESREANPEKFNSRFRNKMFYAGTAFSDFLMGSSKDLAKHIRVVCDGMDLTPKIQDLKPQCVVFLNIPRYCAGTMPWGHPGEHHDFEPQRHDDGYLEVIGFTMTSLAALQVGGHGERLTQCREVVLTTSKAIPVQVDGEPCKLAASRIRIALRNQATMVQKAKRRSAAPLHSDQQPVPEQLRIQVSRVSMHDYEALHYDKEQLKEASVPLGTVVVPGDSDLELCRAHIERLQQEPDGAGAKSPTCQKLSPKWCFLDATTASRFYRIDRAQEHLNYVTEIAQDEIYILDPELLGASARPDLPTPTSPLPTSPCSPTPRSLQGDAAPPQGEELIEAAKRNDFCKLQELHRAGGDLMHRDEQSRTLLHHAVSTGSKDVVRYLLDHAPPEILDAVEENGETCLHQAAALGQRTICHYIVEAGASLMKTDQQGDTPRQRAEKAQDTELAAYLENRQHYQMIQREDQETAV

T2 sequence (Q13574 with tags, fused parts or gaps isoform Q13574-4): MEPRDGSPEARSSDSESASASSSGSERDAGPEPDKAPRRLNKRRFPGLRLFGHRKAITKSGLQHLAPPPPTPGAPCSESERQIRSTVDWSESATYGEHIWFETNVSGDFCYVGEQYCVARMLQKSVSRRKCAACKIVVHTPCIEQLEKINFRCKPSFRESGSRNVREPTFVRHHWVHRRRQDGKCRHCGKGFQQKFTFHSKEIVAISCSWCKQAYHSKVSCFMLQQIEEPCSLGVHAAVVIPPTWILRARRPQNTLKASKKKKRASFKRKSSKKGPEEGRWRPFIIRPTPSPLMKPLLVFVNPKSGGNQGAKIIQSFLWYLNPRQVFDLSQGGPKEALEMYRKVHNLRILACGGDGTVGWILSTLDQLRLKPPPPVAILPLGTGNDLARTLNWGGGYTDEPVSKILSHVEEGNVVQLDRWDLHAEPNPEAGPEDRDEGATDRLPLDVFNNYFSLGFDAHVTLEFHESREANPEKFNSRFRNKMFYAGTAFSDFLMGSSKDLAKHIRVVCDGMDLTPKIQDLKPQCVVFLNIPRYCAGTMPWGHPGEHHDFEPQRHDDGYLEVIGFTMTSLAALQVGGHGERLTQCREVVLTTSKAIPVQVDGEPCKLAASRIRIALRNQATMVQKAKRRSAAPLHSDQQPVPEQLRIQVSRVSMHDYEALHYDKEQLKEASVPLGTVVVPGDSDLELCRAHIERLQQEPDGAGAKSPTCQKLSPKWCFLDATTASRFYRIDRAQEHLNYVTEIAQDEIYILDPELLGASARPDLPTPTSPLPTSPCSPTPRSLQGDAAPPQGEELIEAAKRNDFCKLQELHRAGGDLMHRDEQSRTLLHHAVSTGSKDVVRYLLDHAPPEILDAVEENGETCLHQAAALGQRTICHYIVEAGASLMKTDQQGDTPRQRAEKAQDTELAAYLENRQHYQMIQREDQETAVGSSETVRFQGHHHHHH
DGKalpha, sequence (P23743 whole entry): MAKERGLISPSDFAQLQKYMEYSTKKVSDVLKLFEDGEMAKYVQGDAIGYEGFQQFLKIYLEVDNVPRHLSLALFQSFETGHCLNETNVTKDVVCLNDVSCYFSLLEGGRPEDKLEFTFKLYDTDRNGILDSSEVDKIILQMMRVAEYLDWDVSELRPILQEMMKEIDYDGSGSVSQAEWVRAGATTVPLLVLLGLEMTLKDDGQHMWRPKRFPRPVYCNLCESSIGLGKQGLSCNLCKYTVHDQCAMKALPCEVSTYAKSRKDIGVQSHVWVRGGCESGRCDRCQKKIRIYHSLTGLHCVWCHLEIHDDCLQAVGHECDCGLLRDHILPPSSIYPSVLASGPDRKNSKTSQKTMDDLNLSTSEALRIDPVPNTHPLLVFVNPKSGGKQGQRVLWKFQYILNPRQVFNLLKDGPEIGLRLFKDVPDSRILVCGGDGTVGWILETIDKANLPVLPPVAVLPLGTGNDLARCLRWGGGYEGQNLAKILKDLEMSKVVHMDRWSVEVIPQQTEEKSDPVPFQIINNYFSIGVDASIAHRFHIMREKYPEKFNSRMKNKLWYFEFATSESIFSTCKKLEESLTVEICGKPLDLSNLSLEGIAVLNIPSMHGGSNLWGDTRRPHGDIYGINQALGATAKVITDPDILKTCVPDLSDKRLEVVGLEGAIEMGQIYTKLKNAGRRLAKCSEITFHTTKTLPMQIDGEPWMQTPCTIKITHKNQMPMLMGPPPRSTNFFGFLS
T1 sequence (P23743 with tags, fused parts or gaps): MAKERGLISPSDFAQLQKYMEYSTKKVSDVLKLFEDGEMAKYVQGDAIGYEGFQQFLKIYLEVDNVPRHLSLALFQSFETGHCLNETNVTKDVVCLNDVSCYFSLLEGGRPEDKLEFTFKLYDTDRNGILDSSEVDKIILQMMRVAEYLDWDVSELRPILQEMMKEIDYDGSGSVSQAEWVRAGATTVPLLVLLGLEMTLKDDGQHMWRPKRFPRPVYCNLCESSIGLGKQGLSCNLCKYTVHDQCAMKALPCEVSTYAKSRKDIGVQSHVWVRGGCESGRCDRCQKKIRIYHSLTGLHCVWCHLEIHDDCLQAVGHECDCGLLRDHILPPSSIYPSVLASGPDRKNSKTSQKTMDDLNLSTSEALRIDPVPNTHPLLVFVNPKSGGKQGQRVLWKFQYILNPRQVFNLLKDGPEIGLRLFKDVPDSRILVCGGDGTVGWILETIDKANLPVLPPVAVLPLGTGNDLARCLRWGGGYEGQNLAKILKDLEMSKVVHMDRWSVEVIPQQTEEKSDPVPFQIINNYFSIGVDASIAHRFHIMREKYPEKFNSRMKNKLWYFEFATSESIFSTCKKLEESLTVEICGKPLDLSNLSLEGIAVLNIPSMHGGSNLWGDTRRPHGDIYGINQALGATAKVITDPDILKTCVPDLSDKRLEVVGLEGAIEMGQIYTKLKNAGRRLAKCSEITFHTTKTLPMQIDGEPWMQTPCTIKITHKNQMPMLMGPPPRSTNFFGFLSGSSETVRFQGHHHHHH

In general, IC50 refers to the midpoint of a concentration-inhibition curve. One may read the EC50 as the concentration at which the effect is half-maximal. Take `Cn1c(=O)cc(N(CC2CC2)c2ccc(C3CC3)c(-c3ccc(C(N)=O)cc3)c2)c2nc(C#N)ccc21` [Example 130, 5′-((6-cyano-1-methyl-2-oxo-1,2-dihydro-1,5-naphthyridin-4-yl)(cyclopropylmethyl)amino)-2′-cyclopropyl-[1,1′-biphenyl]-4-carboxamide]: the IC50 in test [1] and in test [3] was > 38 µM each time. Further, the 50% effective concentration (EC50) in test [2] was > 3 µM; in test [4], 0.16 µM.

`Cn1c(=O)cc(N(CC2CC2)c2ccc(C3CC3)c(-c3ccc(OCC4CC4)cc3)c2)c2nc(C#N)ccc21` [Example 131, 8-((6-cyclopropyl-4′-(cyclopropylmethoxy)-[1,1′-biphenyl]-3-yl) (cyclopropylmethyl)amino)-5-methyl-6-oxo-5,6-dihydro-1,5-naphthyridine-2-carbonitrile]: the IC50 in test [1] was > 38 µM; in test [3] it was 34 µM. Besides, the 50% effective concentration (EC50) in test [2] was > 3 µM; in test [4], 0.18 µM.

Take `Cc1cc(N(CC2CC2)c2cc(=O)n(C)c3ccc(C#N)nc23)ccc1C1CC1` [Example 132]: the results for the IC50 in test [1] and in test [3] were > 38 µM and 3.6 µM, respectively. The concentration for a half-maximal effect (EC50) in test [2] is > 3 µM; in test [4], 0.2 µM.

Regarding `CC(=O)N(C)c1ccc(N(CC2CC2)c2cc(=O)n(C)c3ccc(C#N)nc23)cc1` [Example 133], the results for the half-inhibitory concentration (IC50) in test [1] and in test [3] were > 38 µM and 4.4 µM, respectively. For the same compound, the EC50 in test [2] was > 3 µM; in test [4] it was 0.58 µM.
